Data: US20150065524A1, “KINASE INHIBITOR POLYMORPHS” (Intellikine LLC, priority 2011, published 2015)

How the values were obtained:
Format in all cases: physicochemical
[1] = Stability testing: storage at 40° C./75% RH or 25° C./97% RH, reanalysis by XRPD; conditions: for Solid form by XRPD after storage at 40° C./75% RH: 7 days, samples of entries 38, 39, 41, 42; for Stability at 40° C./75% RH, reanalysis by XRPD: stored at 40° C./75% RH, after 7 days, 21 days and 35 days; for Solid form after storage at 40° C./75% relative humidity: 8 days storage; for Stability at 40° C./75% RH: salts of Formula I, salt screening
Experimental: A sample of J00439 was stored at 40° C./75% RH. […] Thus this solid form (which will be referred to as Form A) was stable to accelerated stability testing conditions. Note that some variations in XRPD peak intensity were observed over time.
Samples of entries 38, 39, 41, and 42 were stored at 40° C./75% RH. […]

[2] = Gravimetric Vapour Sorption (GVS); conditions: for Weight lost during the first sorption cycle (GVS): from 40 to 90% RH; for Solid form by XRPD after the GVS experiment: material recovered after GVS
Source text: There was no hysteresis. The material is non-hygroscopic.
The sample was non-hygroscopic, with only 0.16% weight gain in the first sorption cycle.

[3] = Drying of the solids under vacuum, reanalysis by XRPD; conditions: for Solid form after drying: vacuum oven at 40° C. overnight, XRPD and 1H NMR
Experimental: A sample of each solid was dried in a vacuum oven at 40° C. overnight, then the samples were reanalysed by XRPD and ^1H NMR.
Approximately 20 mg of compound of Formula I (Form A) were weighed into vials, and 150 microliters of solvent system were added. The vials were agitated at 50° C., 5° C., or cycled between room temperature and 50° C. for 4 to 5 days. Solids were isolated by filtration and characterized by XRPD and thermal analysis. From acetone/5% water at 5° C., a hydrate was isolated (see FIGS. 15 and 16). […] From dimethylacetamide (DMA) cycled between room temperature and 50° C. for 5 days, a solvate was isolated (see FIGS. 17 and 18). […] Inclusion of 10% or more water with DMA prevented formation of DMA solvate.

Heating to about 100° C. = test: Heating to about 100° C.
[4] = Stability testing: storage at 40° C./75% RH or 25° C./97% RH, reanalysis by XRPD; conditions: 8 days storage

Compound: CC(C)n1nc(-c2ccc3oc(N)nc3c2)c2c(N)ncnc21 [Form E]
- Solid form by XRPD after storage at 40° C./75% RH [1]: turned into Form A
- Weight lost during the first sorption cycle (GVS) ([2]; first sorption cycle): 28 % wt
- Solid form by XRPD after the GVS experiment [2]: turned to Form A
- Solid form after drying [3]: desolvated to Form A

Compound: CC(C)n1nc(-c2ccc3oc(N)nc3c2)c2c(N)ncnc21 [Form A, 5-(4-amino-1-isopropyl-1H-pyrazolo[3,4-d]pyrimidin-3-yl)benzo[d]oxazol-2-Amine]
- Stability at 40° C./75% RH, reanalysis by XRPD [1]: stable
- Stability at 40° C./75% RH, reanalysis by XRPD ([1]; listed as J00439): still pattern A
- Hygroscopicity by GVS [2]: non-hygroscopic
- Solid form by XRPD after the GVS experiment [2]: still pattern A
- GVS weight change over the whole experiment ([2]; whole GVS experiment): 0.1%

Compound: CC(C)n1nc(-c2ccc3oc(N)nc3c2)c2c(N)ncnc21 [DMA solvate]
- Solid form after storage at 40° C./75% relative humidity [1]: converted to Form A
- Solid form after heating (Heating to about 100° C.): converted to Form A
- Solid form after storage at 25° C./97% relative humidity [4]: converted to Form A

Compound: CC(C)n1nc(-c2ccc3oc(N)nc3c2)c2c(N)ncnc21 [hydrate]
- Solid form after storage at 40° C./75% relative humidity [1]: converted to Form A
- Solid form by XRPD after the GVS experiment [2]: converted to Form A
- Solid form after heating (Heating to about 100° C.): converted to Form A
- Solid form after vacuum drying ([3]; vacuum drying): converted to Form A
- Solid form after storage at 25° C./97% relative humidity [4]: converted to Form A

Compound: CC(C)n1nc(-c2ccc3oc(N)nc3c2)c2c(N)ncnc21 [Form B]
- Solid form by XRPD after storage at 40° C./75% RH [1]: turned into Form A
- Weight lost during the first sorption cycle (GVS) ([2]; first sorption cycle): 28 % wt
- Solid form by XRPD after the GVS experiment [2]: desolvated to Form A
- Solid form after drying [3]: only partially desolvated

Compound: Ethane sulfonic acid
- Stability at 40° C./75% RH [1]: Deliquescent

Compound: CC(C)n1nc(-c2ccc3oc(N)nc3c2)c2c(N)ncnc21 [Form C]
- Solid form by XRPD after storage at 40° C./75% RH [1]: still of Form C
- Hygroscopicity by GVS [2]: non-hygroscopic
- Weight loss on desorption (GVS) ([2]; between 90 and 0% RH): 0.38%
- Weight gain in the first sorption cycle (GVS) ([2]; first sorption cycle): 0.16%
- Solid form by XRPD after the GVS experiment [2]: still Form C
- Solid form after drying [3]: stable on drying

Compound: 1,2-Ethane disulfonic acid
- Stability at 40° C./75% RH [1]: Stable for 7 days

Compound: Maleic acid
- Stability at 40° C./75% RH [1]: Stable for 7 days

Compound: Cc1ccc(S(=O)(=O)O)cc1 [p-Toluene sulfonic acid]
- Stability at 40° C./75% RH [1]: Changes pattern after 3 days,

Compound: Methane sulfonic acid
- Stability at 40° C./75% RH [1]: Deliquescent
